Results on 2 compounds are retold here after the NIST ThermoML archive (doi:10.1021/je2011055).

SMILES strings stand for the structures. Numbers after ± are expanded uncertainties.

The vapor or sublimation pressure is the equilibrium pressure above the liquid or solid.

For the data set the following is noted: Liquid, Closed cell (Static) method.

As for `CC(C)C` [2-methylpropane], the “vapor or sublimation pressure” value reads like this: (258.15 K) 88.9 ± 1 kPa; (268.15 K) 130.8 ± 1.1 kPa; (278.15 K) 186.7 ± 1.1 kPa; (288.15 K) 258.7 ± 1.3 kPa.

For the compound `F/C=C/C(F)(F)F` [trans-1,3,3,3-tetrafluoropropene], the “vapor or sublimation pressure” value came to 119.3 ± 1.1 kPa (258.15 K), 178.4 ± 1.1 kPa (268.15 K), 258.1 ± 1.3 kPa (278.15 K) and 362.8 ± 1.5 kPa (288.15 K).
